From US8865623B2, “Herbicidally active cyclic diones and derivatives thereof, processes for their preparation, compositions, and method of controlling weeds” (Syngenta Limited, priority 2009, dated 2014) come the findings set out here.

Format in all cases: in vivo
The test system of experiment [1] is Echinochloa crus-galli (ECHCG). The experiment is described as follows: Pre-emergence herbicidal activity, glasshouse pot test. To be noted: Echinochloa crus-galli, 312 h, Rate 250 g/ha, evaluated after 13 days, read-out: Pre-emergence activity ECHCG (100=total damage to plant; 0=no damage to plant). The procedure:
(§1) Seeds of a variety of test species were sown in standard soil in pots. After cultivation for one day (pre-emergence) or after 8 days cultivation (post-emergence) under controlled conditions in a glasshouse (at 24/16° C., day/night; 14 hours light; 65% humidity), the plants were sprayed with an aqueous spray solution derived from the formulation of the technical active ingredient in acetone/water (50:50) solution containing 0.5% Tween 20 (polyoxyethelyene sorbitan monolaurate, CAS RN 9005-64-5). The test plants were then grown in a glasshouse under controlled conditions in a glasshouse (at 24/16° C., day/night; 14 hours light; 65% humidity) and watered twice daily. After 13 days for pre and post-emergence, the test was evaluated (100=total damage to plant; 0=no damage to plant).
(§2) Lolium perenne (LOLPE), Alopecurus myosuroides (ALOMY), Echinochloa crus-galli (ECHCG), and Avena fatua (AVEFA).

In experiment [2] the test system is Alopecurus myosuroides (ALOMY). The experiment is described as above. To be noted: Alopecurus myosuroides, 312 h, Rate 250 g/ha, evaluated after 13 days, read-out: Pre-emergence activity ALOMY (100=total damage to plant; 0=no damage to plant). The method, then: as §1, §2
Experiment [3] relates to Avena fatua (AVEFA). Described as above. The note with it: Avena fatua, 312 h, Rate 250 g/ha, evaluated after 13 days, read-out: Pre-emergence activity AVEFA (100=total damage to plant; 0=no damage to plant). The procedure: as §1, §2
Experiment [4] deals with Lolium perenne (LOLPE). The description is as above. To be noted: Lolium perenne, 312 h, Rate 250 g/ha, evaluated after 13 days, read-out: Pre-emergence activity LOLPE (100=total damage to plant; 0=no damage to plant). The method, then:
as §1, §2

Experiment [5] concerns Echinochloa crus-galli (ECHCG). The experiment is described as follows: Post-emergence herbicidal activity, glasshouse pot test. The note with it: Echinochloa crus-galli, 312 h, rate 250 g/ha, evaluated after 13 days, read-out: Post-emergence activity ECHCG (100=total damage to plant; 0=no damage to plant). The procedure: as §1, §2
The test system of experiment [6] is Alopecurus myosuroides (ALOMY). The description is as above. To be noted: Alopecurus myosuroides, 312 h, rate 250 g/ha, evaluated after 13 days, read-out: Post-emergence activity ALOMY (100=total damage to plant; 0=no damage to plant). The method, then:
as §1, §2

Experiment [7] relates to Avena fatua (AVEFA). The experiment is described as above. The note with it: Avena fatua, 312 h, rate 250 g/ha, evaluated after 13 days, read-out: Post-emergence activity AVEFA (100=total damage to plant; 0=no damage to plant). The method, then: as §1, §2
For experiment [8], the system named is Lolium perenne (LOLPE). Described as above. The note with it: Lolium perenne, 312 h, rate 250 g/ha, evaluated after 13 days, read-out: Post-emergence activity LOLPE (100=total damage to plant; 0=no damage to plant). The method, then:
as §1, §2

Consider `CC1(C)OC(C)(C)C(O)=C(c2cc(Oc3ccc(Br)cc3)ccc2C2CC2)C1=O` [Example A-351], for which the pest or weed control at 250 g/ha in experiment [1] (pre-emergence) amounted to 100%; in experiment [2] (pre-emergence) it was 60%; in the experiment on Avena fatua (AVEFA) [3] (pre-emergence) it was 10%; with Lolium perenne (LOLPE) [4] (pre-emergence) it was 90%; in experiment [5] it was 100%; in experiment [6], 90%. Moreover, the pest or weed control at 250 g/ha was determined as 10% in the experiment with Avena fatua (AVEFA) [7] and 100% in the experiment on Lolium perenne (LOLPE) [8].

`CCc1ccc(Oc2cc(F)ccc2C#N)cc1C1=C(O)C(C)(C)OC(C)(C)C1=O` [Example A-117]: the pest or weed control at 250 g/ha in experiment [1] (pre-emergence spray) came to 20%; in experiment [2] (pre-emergence spray) it was 0%; in the experiment with Avena fatua (AVEFA) [3] (pre-emergence spray), 0%; with Lolium perenne (LOLPE) [4] (pre-emergence spray), 20%; in experiment [5] (glasshouse) it was 100%; in experiment [6] (glasshouse) it was 80%. Moreover, the pest or weed control at 250 g/ha with Avena fatua (AVEFA) [7] (glasshouse) came out at 30%; with Lolium perenne (LOLPE) [8] (glasshouse) it was 40%.

In the case of `CCc1ccc(Oc2ncc(Cl)cn2)cc1C1=C(O)CC2(CCOCC2)CC1=O` [Example A-263], the pest or weed control at 250 g/ha in experiment [1] (pre-emergence spray) came to 100%; in experiment [2] (pre-emergence spray), 60%; with Avena fatua (AVEFA) [3] (pre-emergence spray), 20%; in the experiment with Lolium perenne (LOLPE) [4] (pre-emergence spray), 50%; in experiment [5] (glasshouse) it was 100%; in experiment [6] (glasshouse) it was 100%. The values for the pest or weed control at 250 g/ha in the experiment with Avena fatua (AVEFA) [7] (glasshouse) and in the experiment on Lolium perenne (LOLPE) [8] (glasshouse) were 90% and 60%, respectively.

`CCc1ccc(Oc2cnc3cc(Cl)ccc3n2)cc1C1=C(O)[C@@H]2CC[C@](C)(C1=O)C2(C)C` [Example A-243]: the pest or weed control at 250 g/ha came out at 90% in experiment [2] (pre-emergence spray); 80% in the experiment on Avena fatua (AVEFA) [3] (pre-emergence spray); 100% in the experiment with Lolium perenne (LOLPE) [4] (pre-emergence spray); 100% in experiment [5] (glasshouse); 100% in experiment [6] (glasshouse); 100% with Avena fatua (AVEFA) [7] (glasshouse). For the same compound, the pest or weed control at 250 g/ha in the experiment with Lolium perenne (LOLPE) [8] (glasshouse) is 100%.

Take `CCc1ccc(Oc2ccc(Br)cc2)cc1C1=C(O)C(C)(C)OC(C)(C)C1=O` [Example A-8]: the pest or weed control at 250 g/ha in experiment [1] (pre-emergence spray) was 100%; in experiment [2] (pre-emergence spray), 60%; with Avena fatua (AVEFA) [3] (pre-emergence spray) it was 10%; in the experiment on Lolium perenne (LOLPE) [4] (pre-emergence spray), 100%; in experiment [5] (glasshouse) it was 100%; in experiment [6] (glasshouse), 100%. Moreover, the pest or weed control at 250 g/ha in the experiment with Avena fatua (AVEFA) [7] (glasshouse) was 0%; in the experiment with Lolium perenne (LOLPE) [8] (glasshouse), 100%.

As for `CCc1ccc(Oc2cc(Cl)nc(C)n2)cc1C1=C(O)C(C)(C)OC(C)(C)C1=O` [Example A-130], the pest or weed control at 250 g/ha in experiment [1] (pre-emergence spray) turned out to be 30%; in experiment [2] (pre-emergence spray), 0%; with Avena fatua (AVEFA) [3] (pre-emergence spray), 0%; in the experiment on Lolium perenne (LOLPE) [4] (pre-emergence spray), 0%; in experiment [5] (glasshouse), 40%; in experiment [6] (glasshouse) it was 10%. Further, the pest or weed control at 250 g/ha in the experiment on Avena fatua (AVEFA) [7] (glasshouse) was found to be 0%; in the experiment on Lolium perenne (LOLPE) [8] (glasshouse), 10%.

Regarding `CC1(C)OC(C)(C)C(O)=C(c2cc(Oc3ccc(Cl)cc3F)ccc2C2CC2)C1=O` [Example A-348], the pest or weed control at 250 g/ha in experiment [1] (pre-emergence) was 100%; in experiment [2] (pre-emergence), 60%; with Avena fatua (AVEFA) [3] (pre-emergence), 10%; in the experiment with Lolium perenne (LOLPE) [4] (pre-emergence), 100%; in experiment [5], 100%; in experiment [6] it was 100%. Moreover, the pest or weed control at 250 g/ha in the experiment with Avena fatua (AVEFA) [7] was found to be 60%; with Lolium perenne (LOLPE) [8], 90%.

On to `CCc1ccc(Oc2ccc(Cl)cc2C)cc1C1=C(O)C(C)(C)OC(C)(C)C1=O` [Example A-180], for which the pest or weed control at 250 g/ha was 0% in experiment [2] (pre-emergence spray); 0% in the experiment with Avena fatua (AVEFA) [3] (pre-emergence spray); 0% in the experiment on Lolium perenne (LOLPE) [4] (pre-emergence spray); 30% in experiment [5] (glasshouse); 0% in experiment [6] (glasshouse); 0% in the experiment on Avena fatua (AVEFA) [7] (glasshouse). For the same compound, the pest or weed control at 250 g/ha in the experiment on Lolium perenne (LOLPE) [8] (glasshouse) was determined as 10%.

In the case of `Cc1ccc(Oc2ccc(Cl)cc2)cc1C1=C(O)C(C)(C)OC(C)(C)C1=O` [Example A-1], the pest or weed control at 250 g/ha in experiment [1] (pre-emergence spray) was 0%; in experiment [2] (pre-emergence spray) it was 0%; with Avena fatua (AVEFA) [3] (pre-emergence spray), 0%; in experiment [5] (glasshouse), 60%; in experiment [6] (glasshouse), 20%; in the experiment on Avena fatua (AVEFA) [7] (glasshouse) it was 0%.

Turning to `CCc1ccc(Oc2ccc(OC(F)(F)F)cc2)cc1C1=C(O)C(C)(C)OC(C)(C)C1=O` [Example A-242], the pest or weed control at 250 g/ha in experiment [2] (pre-emergence spray) worked out at 70%; in the experiment with Avena fatua (AVEFA) [3] (pre-emergence spray), 40%; with Lolium perenne (LOLPE) [4] (pre-emergence spray), 80%; in experiment [5] (glasshouse) it was 100%; in experiment [6] (glasshouse), 100%; in the experiment on Avena fatua (AVEFA) [7] (glasshouse), 100%. For the same compound, the pest or weed control at 250 g/ha in the experiment with Lolium perenne (LOLPE) [8] (glasshouse) worked out at 100%.

For the compound `CCc1ccc(Oc2cccc(Cl)c2)cc1C1=C(O)C(C)(C)OC(C)(C)C1=O` [Example A-5], the pest or weed control at 250 g/ha in experiment [1] (pre-emergence spray) is 90%; in experiment [2] (pre-emergence spray), 0%; in the experiment on Avena fatua (AVEFA) [3] (pre-emergence spray), 0%; in experiment [5] (glasshouse) it was 90%; in experiment [6] (glasshouse) it was 20%; in the experiment on Avena fatua (AVEFA) [7] (glasshouse) it was 0%.

`CCc1ccc(Oc2ccc(Br)cc2F)cc1C1=C(O)C(C)(C)OC(C)(C)C1=O` [Example A-7]: the pest or weed control at 250 g/ha in experiment [1] (pre-emergence spray) is 100%; in experiment [2] (pre-emergence spray) it was 60%; in the experiment with Avena fatua (AVEFA) [3] (pre-emergence spray), 60%; in experiment [5] (glasshouse), 100%; in experiment [6] (glasshouse), 90%; with Avena fatua (AVEFA) [7] (glasshouse), 70%.

Regarding `CCc1ccc(Oc2ccc(Cl)cc2)cc1C1=C(O)C(C)(C)OC(C)(C)C1=O` [Example A-4], the pest or weed control at 250 g/ha came to 100% in experiment [1] (pre-emergence spray); 40% in experiment [2] (pre-emergence spray); 0% with Avena fatua (AVEFA) [3] (pre-emergence spray); 100% in experiment [5] (glasshouse); 80% in experiment [6] (glasshouse); 0% in the experiment on Avena fatua (AVEFA) [7] (glasshouse).

Turning to `CCc1ccc(Oc2ccc(F)c(C)c2)cc1C1=C(O)C(C)(C)OC(C)(C)C1=O` [Example A-179], the pest or weed control at 250 g/ha in experiment [2] (pre-emergence spray) turned out to be 0%; in the experiment with Avena fatua (AVEFA) [3] (pre-emergence spray), 0%; with Lolium perenne (LOLPE) [4] (pre-emergence spray), 0%; in experiment [5] (glasshouse), 20%; in experiment [6] (glasshouse), 0%; in the experiment with Avena fatua (AVEFA) [7] (glasshouse), 0%. The pest or weed control at 250 g/ha in the experiment on Lolium perenne (LOLPE) [8] (glasshouse) is 20%.

`Cc1ccc(Oc2ccc(Cl)cc2Cl)cc1C1=C(O)C(C)(C)OC(C)(C)C1=O` [Example A-2]: the pest or weed control at 250 g/ha amounted to 0% in experiment [1] (pre-emergence spray); 0% in experiment [2] (pre-emergence spray); 0% in the experiment on Avena fatua (AVEFA) [3] (pre-emergence spray); 90% in experiment [5] (glasshouse); 60% in experiment [6] (glasshouse); 50% with Avena fatua (AVEFA) [7] (glasshouse).

Consider `CCc1ccc(Oc2ccccc2Cl)cc1C1=C(O)C(C)(C)OC(C)(C)C1=O` [Example A-6], for which the pest or weed control at 250 g/ha amounted to 30% in experiment [1] (pre-emergence spray); 0% in experiment [2] (pre-emergence spray); 0% in the experiment with Avena fatua (AVEFA) [3] (pre-emergence spray); 70% in experiment [5] (glasshouse); 0% in experiment [6] (glasshouse); 0% in the experiment on Avena fatua (AVEFA) [7] (glasshouse).
